As a reminder, the MIC is the smallest concentration in the dilution series that meets the test's criterion for growth inhibition.

Assay [1] concerns Methicillin Resistant Staphylococcus aureus strain USA 200. Kind of assay: Minimum inhibitory concentration (MIC), CLSI broth micro-dilution, S. aureus. It is filed as cell-based. The following applies: Staphylococcus aureus, MRSA / USA200; Table 6; MRSA USA 200; cation adjusted Mueller Hinton Broth + 0.002% Tween-80; 35° C., 22 hours. Summed up: (§1)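 Antibacterial potency is measured as MIC by the CLSI broth dilution method. Bacteria at OD600 0.0005 in Tween-80-supplemented cation-adjusted Mueller Hinton broth face ten twofold compound dilutions for 22 h at 35° C.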
For orientation: Dilution methods test growth across graded concentrations, often in twofold steps.

Assay [2] has as its system Escherichia coli ATCC 25922. Kind of assay: Minimum inhibitory concentration (MIC), CLSI broth micro-dilution, E. coli. The following applies: Escherichia coli, ATCC25922, 22 h, Table 6, cation adjusted Mueller Hinton Broth + 0.002% Tween-80, 35° C. It is filed as cell-based. The essentials:
as §1

Consider `Cc1cc(-c2ccc(OCC(C)(C)C)cc2)nc(C)c1C(=O)N[C@@H](CCN)C(=O)N(C)[C@@H]1C(=O)N[C@@H](C)C(=O)N[C@H](C(=O)NCC#N)Cc2ccc(OCCN)c(c2)-c2cc1ccc2OCCN` (racemic) [Compound 359, rac-(8S,11S,14S)-3,18-bis(2-aminoethoxy)-N-(cyanomethyl)-11-methyl-14-[methyl-[rac-(2S)-4-amino-2-[[6-[4-(2,2-dimethylpropoxy)phenyl]-2,4-dimethyl-pyridine-3-carbonyl]amino]butanoyl]amino]-10,13-dioxo-9,12-diazatricyclo[13.3.1.12,6]icosa-1(18),2(20),3,5,15(19),16-hexaene-8-carboxamide], for which the MIC in assay [1] was 0.008 µM; in assay [2] it was 0.064 µM.

In the case of `Cc1cc(-c2ccc(OC(C)C)cc2)nc(C)c1C(=O)N[C@@H](CCN)C(=O)N(C)[C@@H]1C(=O)N[C@@H](C)C(=O)N[C@H](C(=O)NCC#N)Cc2ccc(OCCN)c(c2)-c2cc1ccc2OCCN` (racemic) [Compound 360, rac-(8S,11S,14S)-3,18-bis(2-aminoethoxy)-N-(cyanomethyl)-11-methyl-14-[methyl-[rac-(2S)-4-amino-2-[[6-(4-isopropoxyphenyl)-2,4-dimethyl-pyridine-3-carbonyl]amino]butanoyl]amino]-10,13-dioxo-9,12-diazatricyclo[13.3.1.12,6]icosa-1(18),2(20),3,5,15(19),16-hexaene-8-carboxamide], the MIC in assay [1] came out at 0.066 µM; in assay [2], 0.26 µM.

With `Cc1cc(-c2ccc3c(c2)CCC3(C)C)nc(C)c1C(=O)N[C@@H](CCN)C(=O)N(C)[C@@H]1C(=O)N[C@@H](C)C(=O)N[C@H](C(=O)NCC#N)Cc2ccc(OCCN)c(c2)-c2cc1ccc2OCCN` (racemic) [Compound 361, rac-(8S,11S,14S)-3,18-bis(2-aminoethoxy)-N-(cyanomethyl)-11-methyl-14-[methyl-[rac-(2S)-4-amino-2-[[6-(1,1-dimethylindan-5-yl)-2,4-dimethyl-pyridine-3-carbonyl]amino]butanoyl]amino]-10,13-dioxo-9,12-diazatricyclo[13.3.1.12,6]icosa-1(18),2(20),3,5,15(19),16-hexaene-8-carboxamide], the MIC in assay [1] was determined as 0.016 µM; in assay [2] it was 0.13 µM.

For the compound `CCCCCOc1ccc(-c2cc(C)c(C(=O)N[C@@H](CCN)C(=O)N(C)[C@@H]3C(=O)N[C@@H](C)C(=O)N[C@H](C(=O)NCC#N)Cc4ccc(OCCN)c(c4)-c4cc3ccc4OCCN)c(C)n2)cc1` (racemic) [Compound 362, rac-(8S,11S,14S)-3,18-bis(2-aminoethoxy)-N-(cyanomethyl)-11-methyl-14-[methyl-[rac-(2S)-4-amino-2-[[2,4-dimethyl-6-(4-pentoxyphenyl)pyridine-3-carbonyl]amino]butanoyl]amino]-10,13-dioxo-9,12-diazatricyclo[13.3.1.12,6]icosa-1(18),2(20),3,5,15(19),16-hexaene-8-carboxamide], the values for the MIC in assay [1] and in assay [2] were 0.063 µM and 0.25 µM, respectively.

On to `Cc1cc(-c2ccc(C(C)(C)C)cc2F)nc(C)c1C(=O)N[C@@H](CCN)C(=O)N(C)[C@@H]1C(=O)N[C@@H](C)C(=O)N[C@H](C(=O)NCC#N)Cc2ccc(OCCN)c(c2)-c2cc1ccc2OCCN` (racemic) [Compound 363, rac-(8S,11S,14S)-3,18-bis(2-aminoethoxy)-N-(cyanomethyl)-11-methyl-14-[methyl-[rac-(2S)-4-amino-2-[[6-(4-tert-butyl-2-fluoro-phenyl)-2,4-dimethyl-pyridine-3-carbonyl]amino]butanoyl]amino]-10,13-dioxo-9,12-diazatricyclo[13.3.1.12,6]icosa-1(18),2(20),3,5,15(19),16-hexaene-8-carboxamide], for which the MIC in assay [1] was 0.016 µM; in assay [2] it was 0.19 µM.

For `Cc1cc(-c2ccc(OC3CCCCC3)cc2)nc(C)c1C(=O)N[C@@H](CCN)C(=O)N(C)[C@@H]1C(=O)N[C@@H](C)C(=O)N[C@H](C(=O)NCC#N)Cc2ccc(OCCN)c(c2)-c2cc1ccc2OCCN` (racemic) [Compound 364, rac-(8S,11S,14S)-3,18-bis(2-aminoethoxy)-N-(cyanomethyl)-11-methyl-14-[methyl-[rac-(2S)-4-amino-2-[[6-[4-(cyclohexoxy)phenyl]-2,4-dimethyl-pyridine-3-carbonyl]amino]butanoyl]amino]-10,13-dioxo-9,12-diazatricyclo[13.3.1.12,6]icosa-1(18),2(20),3,5,15(19),16-hexaene-8-carboxamide], the MIC in assay [1] was found to be 0.016 µM; in assay [2], 0.25 µM.

Take `CCCCc1ccc(-c2cc(C)c(C(=O)N[C@@H](CCN)C(=O)N(C)[C@@H]3C(=O)N[C@@H](C)C(=O)N[C@H](C(=O)NCC#N)Cc4ccc(OCCN)c(c4)-c4cc3ccc4OCCN)c(C)n2)cc1` (racemic) [Compound 366, rac-(8S,11S,14S)-3,18-bis(2-aminoethoxy)-N-(cyanomethyl)-11-methyl-14-[methyl-[rac-(2S)-4-amino-2-[[6-(4-butylphenyl)-2,4-dimethyl-pyridine-3-carbonyl]amino]butanoyl]amino]-10,13-dioxo-9,12-diazatricyclo[13.3.1.12,6]icosa-1(18),2(20),3,5,15(19),16-hexaene-8-carboxamide]: the results for the MIC in assay [1] and in assay [2] were 0.016 µM and 0.13 µM, respectively.

Regarding `Cc1cc(-c2ccc(C(C)(C)C)cc2N)nc(C)c1C(=O)N[C@@H](CCN)C(=O)N(C)[C@@H]1C(=O)N[C@@H](C)C(=O)N[C@H](C(=O)NCC#N)Cc2ccc(OCCN)c(c2)-c2cc1ccc2OCCN` (racemic) [Compound 369, rac-(8S,11S,14S)-3,18-bis(2-aminoethoxy)-N-(cyanomethyl)-11-methyl-14-[methyl-[rac-(2S)-4-amino-2-[[6-(2-amino-4-tert-butyl-phenyl)-2,4-dimethyl-pyridine-3-carbonyl]amino]butanoyl]amino]-10,13-dioxo-9,12-diazatricyclo[13.3.1.12,6]icosa-1(18),2(20),3,5,15(19),16-hexaene-8-carboxamide], the MIC in assay [1] was found to be 0.047 µM; in assay [2], 0.75 µM.

Take `Cc1cc(-c2ccc(C(C)(C)C)cc2)cc(C)c1C(=O)N[C@@H](CCN)C(=O)N(C)[C@@H]1C(=O)N[C@@H](C)C(=O)N[C@H](C(=O)NCC#N)Cc2ccc(OCCN)c(c2)-c2cc1ccc2OCCN` (racemic) [Compound 370, rac-(8S,11S,14S)-3,18-bis(2-aminoethoxy)-N-(cyanomethyl)-11-methyl-14-[methyl-[rac-(2S)-4-amino-2-[[4-(4-tert-butylphenyl)-2,6-dimethyl-benzoyl]amino]butanoyl]amino]-10,13-dioxo-9,12-diazatricyclo[13.3.1.12,6]icosa-1(18),2(20),3,5,15(19),16-hexaene-8-carboxamide]: the MIC in assay [1] was found to be 0.031 µM; in assay [2], 0.19 µM.

Consider `C[C@@H]1NC(=O)[C@@H](N(C)C(=O)[C@H](CCN)NC(=O)c2ccc(-c3ccc(C(C)(C)C)cc3)cc2Cl)c2ccc(OCCN)c(c2)-c2cc(ccc2OCCN)C[C@@H](C(=O)NCC#N)NC1=O` (racemic) [Compound 371, rac-(8S,11S,14S)-3,18-bis(2-aminoethoxy)-N-(cyanomethyl)-11-methyl-14-[methyl-[rac-(2S)-4-amino-2-[[4-(4-tert-butylphenyl)-2-chloro-benzoyl]amino]butanoyl]amino]-10,13-dioxo-9,12-diazatricyclo[13.3.1.12,6]icosa-1(18),2(20),3,5,15(19),16-hexaene-8-carboxamide], for which the MIC in assay [1] came out at 0.031 µM; in assay [2] it was 0.19 µM.

For the origin of these results see patent US20260274892A1, “MACROCYCLIC BROAD SPECTRUM ANTIBIOTICS” (RQx Pharmaceuticals, Inc., priority 2017, published 2026).
